Experimental data reported in PubChem BioAssay (NCI).
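Values below derive from 48-hour exposures of cells grown in 96-well plates, with endpoints linearly interpolated between the two concentrations bracketing the appropriate inhibition level. TGI: total growth inhibition.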

Tests used:
Experiment in all cases: inhibition of tumour cell growth, NCI panel, 48 h
[1] = tested on: 786-0 renal
[2] = tested on: A498 renal
[3] = tested on: A549 NSCLC
[4] = tested on: ACHN renal
[5] = tested on: BT-549 breast
[6] = tested on: CAKI-1 renal
[7] = tested on: CCRF-CEM leukemia
[8] = tested on: COLO 205 colon
[9] = tested on: DU-145 prostate
[10] = tested on: EKVX NSCLC
[11] = tested on: HCC-2998 colon
[12] = tested on: HCT-15 colon
[13] = tested on: HL-60(TB) leukemia
[14] = tested on: HOP-92 NSCLC
[15] = tested on: HS 578T breast
[16] = tested on: IGROV1 ovarian
[17] = tested on: K-562 leukemia
[18] = tested on: KM12 colon
[19] = tested on: LOX IMVI melanoma
[20] = tested on: M14 melanoma
[21] = tested on: MALME-3M melanoma
[22] = tested on: MCF7 breast
[23] = tested on: MDA-MB-231 breast
[24] = tested on: MDA-MB-435
[25] = tested on: MDA-N
[26] = tested on: MOLT-4 leukemia
[27] = tested on: NCI-H226 lung
[28] = tested on: NCI-H460 lung
[29] = tested on: NCI-H522 lung
[30] = tested on: NCI/ADR-RES ovarian
[31] = tested on: OVCAR-3 ovarian
[32] = tested on: OVCAR-4 ovarian
[33] = tested on: OVCAR-5 ovarian
[34] = tested on: OVCAR-8 ovarian
[35] = tested on: PC-3 prostate
[36] = tested on: RPMI-8226 leukemia
[37] = tested on: RXF 393 renal
[38] = tested on: SF-268 CNS
[39] = tested on: SF-295 CNS
[40] = tested on: SF-539 CNS
[41] = tested on: SK-MEL-2 melanoma
[42] = tested on: SK-MEL-28 melanoma
[43] = tested on: SK-MEL-5 melanoma
[44] = tested on: SN12C renal
[45] = tested on: SNB-19 CNS
[46] = tested on: SNB-75 CNS
[47] = tested on: SR leukemia
[48] = tested on: SW-620 colon
[49] = tested on: TK-10 renal
[50] = tested on: U251 CNS
[51] = tested on: UACC-257 melanoma
[52] = tested on: UACC-62 melanoma
[53] = tested on: UO-31 renal
[54] = tested on: HCT-116 colon
[55] = tested on: HOP-62 NSCLC
[56] = tested on: HT29 colon
[57] = tested on: NCI-H23 lung
[58] = tested on: SK-OV-3 ovarian
[59] = tested on: T-47D breast

Cc1cc(S(=O)(=O)N2CCNNC2=O)c(S)cc1Cl
TGI [1]: 43 µM | TGI [2]: > 100 µM | TGI [3]: > 100 µM | TGI [4]: > 100 µM | TGI [5]: 64.2 µM | TGI [6]: > 100 µM | TGI [7]: > 100 µM | TGI [8]: > 100 µM | TGI [9]: > 100 µM | TGI [10]: > 100 µM | TGI [11]: > 100 µM | TGI [12]: > 100 µM | TGI [13]: > 100 µM | TGI [14]: > 100 µM | TGI [15]: > 100 µM | TGI [16]: > 100 µM | TGI [17]: > 100 µM | TGI [18]: > 100 µM | TGI [19]: > 100 µM | TGI [20]: > 100 µM | TGI [21]: 46.2 µM | TGI [22]: > 100 µM | TGI [23]: 61 µM | TGI [24]: > 100 µM | TGI [25]: > 100 µM | TGI [26]: > 100 µM | TGI [27]: > 100 µM | TGI [28]: > 100 µM | TGI [29]: 66.6 µM | TGI [30]: > 100 µM | TGI [31]: > 100 µM | TGI [32]: > 100 µM | TGI [33]: > 100 µM | TGI [34]: > 100 µM | TGI [35]: > 100 µM | TGI [36]: > 100 µM | TGI [37]: 40.9 µM | TGI [38]: > 100 µM | TGI [39]: > 100 µM | TGI [40]: > 100 µM | TGI [41]: > 100 µM | TGI [42]: 59.6 µM | TGI [43]: > 100 µM | TGI [44]: > 100 µM | TGI [45]: > 100 µM | TGI [46]: > 100 µM | TGI [47]: > 100 µM | TGI [48]: > 100 µM | TGI [49]: > 100 µM | TGI [50]: > 100 µM | TGI [51]: > 100 µM | TGI [52]: > 100 µM | TGI [53]: > 100 µM

O=C(/C=C/c1ccc(Cl)cc1)c1ccccc(=O)c1O
TGI [1]: 32.1 µM | TGI [2]: 36 µM | TGI [3]: > 39.2 µM | TGI [4]: 6.66 µM | TGI [5]: 13.5 µM | TGI [6]: 2.79 µM | TGI [7]: 0.773 µM | TGI [8]: 6.53 µM | TGI [9]: 19.1 µM | TGI [10]: 18.3 µM | TGI [11]: 8.29 µM | TGI [54]: 10.4 µM | TGI [12]: 6.08 µM | TGI [13]: 2.04 µM | TGI [55]: 21.1 µM | TGI [14]: 17 µM | TGI [15]: 31.1 µM | TGI [56]: 10.8 µM | TGI [16]: 15.8 µM | TGI [17]: 12.1 µM | TGI [18]: 6.45 µM | TGI [19]: 13 µM | TGI [20]: 20.1 µM | TGI [21]: 5.22 µM | TGI [22]: 19.8 µM | TGI [23]: 23.6 µM | TGI [24]: 20.8 µM | TGI [26]: 16.2 µM | TGI [27]: 5.45 µM | TGI [57]: 18.1 µM | TGI [28]: 3.04 µM | TGI [29]: 50.9 µM | TGI [30]: 2.42 µM | TGI [31]: 19.8 µM | TGI [32]: 17.9 µM | TGI [33]: 19.8 µM | TGI [34]: > 100 µM | TGI [35]: 20 µM | TGI [36]: 4.79 µM | TGI [37]: > 100 µM | TGI [38]: 36.2 µM | TGI [39]: 16.3 µM | TGI [40]: 17.5 µM | TGI [41]: 11.8 µM | TGI [42]: 26.4 µM | TGI [43]: 4.93 µM | TGI [58]: 16.6 µM | TGI [44]: 4.58 µM | TGI [45]: 11.8 µM | TGI [46]: 12.3 µM | TGI [47]: > 100 µM | TGI [48]: > 40 µM | TGI [59]: 19.8 µM | TGI [49]: 19.1 µM | TGI [50]: > 100 µM | TGI [51]: 14.6 µM | TGI [52]: 6 µM | TGI [53]: > 100 µM
